{"source": "patent US10111874B2", "about": "“Combination therapies for treatment of cancer” (Araxes Pharma LLC, priority 2014, dated 2018)"}
{"target": "T1, KRAS G12C 1-169, his-tagged protein, GDP-loaded (Homo sapiens, UniProt P01116, G12C)", "T1 construct": "KRAS G12C 1-169, his-tagged protein, GDP-loaded", "T1 sequence (P01116 1-169 isoform P01116-2 G12C)": "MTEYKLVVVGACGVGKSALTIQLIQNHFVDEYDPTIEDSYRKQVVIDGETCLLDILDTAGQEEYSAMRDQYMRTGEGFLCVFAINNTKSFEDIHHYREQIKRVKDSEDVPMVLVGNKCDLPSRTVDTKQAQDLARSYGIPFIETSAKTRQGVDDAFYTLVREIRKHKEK", "assay": "Biochemical assay: covalent binding to KRAS G12C analyzed by mass spectrometry", "details": "compounds 48-246, measured at 2 h", "procedure": "(§1) Compounds were tested for activity as follows:\n(§2) Compounds were diluted to 50× final test concentration in DMSO in 96-well storage plates. […] Reactions were mixed carefully and thoroughly by pipetting up/down with a 200 μl multi-channel pipettor. […] 5 μl of 2% formic acid (Fisher cat#A117) in DI H2O was then added to each well followed by mixing with a pipette. The plate was then resealed with aluminum seal and stored on dry ice until analyzed as described below.\n(§3) The above described assays were analyzed by mass spectrometry according to the following procedure:\n(§4) The MS instrument is set to positive polarity, 2 GHz resolution, and low mass (1700) mode and allowed to equilibrate for 30 minutes. The instrument is then calibrated, switched to acquisition mode and the appropriate method loaded.\n(§5) After another 30 minute equilibration time, a blank batch (i.e., buffer) is run to ensure equipment is operating properly. The samples are thawed at 37° C. for 10 minutes, briefly centrifuged, and transfer to the bench top. Wells A1 and H12 are spiked with 1 μL 500 μM internal standard peptide, and the plates centrifuged at 2000×g for 5 minutes. The method is then run and masses of each individual well recorded.\n(§6) The masses (for which integration data is desired) for each well are pasted into the platemap and exported from the analysis. Masses for the internal standards are exported as well. The data at 50 ppm is extracted for the +19 charge state, and identity of well A1 is assigned using the internal standard spike and integrated. Peak data is exported as a TOF list and the above steps are repeated individually, for the +20, 21, 22, 23, 24, and 25 charge states."}
{"molecule": "C=CC(=O)N1CCN(c2ncnc3cc(Cl)c(-c4ccc(Cl)cc4)cc23)C[C@H]1C(N)=O", "note": "[Compound I-54, (S)-1-acryloyl-4-(7-chloro-6-(4-chlorophenyl)quinazolin-4-yl)piperazine-2-carboxamide]", "Binding %": "++ (++indicates binding activity greater than 25% and up to 50%)"}
{"molecule": "C=CC(=O)N1CCN(c2ncnc3cc(-c4ccccc4C4(C#N)CC4)c(Cl)cc23)CC1", "note": "[Compound I-175, 1-(2-(4-(4-acryloylpiperazin-1-yl)-6-chloroquinazolin-7-yl)phenyl)cyclopropanecarbonitrile]", "Binding %": "+++ (+++indicates binding activity greater than 50% and up to 75%)"}
{"molecule": "C=CC(=O)N1CCN(c2ncnc3cc(-c4ccc(F)cc4O)c(Cl)cc23)CC1", "note": "[Compound I-133, 1-0(4-(6-chloro-7-(4-fluoro-2-hydroxyphenyl)quinazolin-4-yl)piperazin-1-yl)prop-2-en-1-one]", "Binding %": "++ (++indicates binding activity greater than 25% and up to 50%)"}
{"molecule": "C=CC(=O)N1CCN(c2ncnc3cc(-c4ccccc4C#N)c(Cl)cc23)CC1", "note": "[Compound I-105, 2-(4-(4-acryloylpiperazin-1-yl)-6-chloroquinazolin-7-yl)benzonitrile]", "Binding %": "+ (+indicates binding activity from 5% to 25%)"}
{"molecule": "C=CC(=O)N1CCN(c2ncnc3cc(-c4cccc5c4CCCC5)c(Cl)cc23)CC1", "note": "[Compound I-148, 1-(4-(6-chloro-7-(5,6,7,8-tetrahydronaphthalen-1-yl)quinazolin-4-yl)piperazin-1-yl)prop-2-en-1-one]", "Binding %": "+++ (+++indicates binding activity greater than 50% and up to 75%)"}
{"molecule": "C=CC(=O)N1CCN(c2ncnc3cc(-c4c(F)cccc4C#N)c(Cl)cc23)CC1", "note": "[Compound I-192, 2-(4-(4-acryloylpiperazin-1-yl)-6-chloroquinazolin-7-yl)-3-fluorobenzonitrile]", "Binding %": "++ (++indicates binding activity greater than 25% and up to 50%)"}
{"target": "T1, KRAS G12C 1-169, his-tagged protein, GDP-loaded", "assay": "Biochemical assay: covalent binding to KRAS G12C analyzed by mass spectrometry", "details": "compounds 247-342, measured at 30 min", "procedure": "as §1, §2, §3, §4, §5, §6"}
{"molecule": "C#CC1CN(c2ncnc3c(F)c(-c4ccccc4F)c(Cl)cc23)CCN1C(=O)C=C", "note": "(stereo not drawn) [Compound I-252, 1-(4-(6-chloro-8-fluoro-7-(2-fluorophenyl)quinazolin-4-yl)-2-ethynylpiperazin-1-yl)prop-2-en-1-one]", "Binding %": "++++ (++++indicates binding activity greater than 75%)"}
{"molecule": "C=CC(=O)N1CCN(c2ncnc3c(F)c(-c4c(C)ccc5cn[nH]c45)c(F)cc23)CC1", "note": "[Compound 298, 1-(4-(6,8-difluoro-7-(6-methyl-1H-indazol-7-yl)-quinazolin-4-yl)piperazin-1-yl)prop-2-en-1-one]", "Binding %": "++ (++indicates binding activity greater than 25% and up to 50%)"}
{"molecule": "C=CC(=O)N1CCN(c2nc(OC3CCCOC3)nc3cc(-c4c(C)ccc5[nH]ncc45)c(Cl)cc23)CC1", "note": "(stereo not drawn) [Compound 316, 1-(4-(6-chloro-7-(5-methyl-1H-indazol-4-yl)-2-(tetrahydro-2H-pyran-3-yloxy)quinazolin-4-yl)piperazin-1-yl)prop-2-en-1-one]", "Binding %": "++ (++indicates binding activity greater than 25% and up to 50%)"}
{"molecule": "C=CC(=O)N1CCN(c2ncnc3c(F)c(-c4c[nH]c5ccccc45)c(Cl)cc23)CC1", "note": "[Compound I-288, 1-(4-(6-chloro-8-fluoro-7-(1H-indol-3-yl)quinazolin-4-yl)piperazin-1-yl)prop-2-en-1-one]", "Binding %": "++ (++indicates binding activity greater than 25% and up to 50%)"}
{"molecule": "C=CC(=O)N1CCN(c2nc(-c3cn[nH]c3)nc3c(F)c(-c4c(C)ccc5[nH]ncc45)c(Cl)cc23)CC1", "note": "[Compound 304, 1-(4-(6-chloro-8-fluoro-7-(5-methyl-1H-indazol-4-yl)-2-(1H-pyrazol-4-yl)quinazolin-4-yl)piperazin-1-yl)prop-2-en-1-one]", "Binding %": "++ (++indicates binding activity greater than 25% and up to 50%)"}
{"target": "T1, KRAS G12C 1-169, his-tagged protein, GDP-loaded", "assay": "Biochemical assay: covalent binding to KRAS G12C analyzed by mass spectrometry", "details": "determined at 2 hrs", "procedure": "as §1, §2, §3, §4, §5, §6"}
{"molecule": "C=CC(=O)N1CC(N2CCN(C(=O)CNc3cc(C4CC4)c(Cl)cc3O)CC2C(N)=O)C1", "note": "(stereo not drawn) [II-51, 1-(1-acryloylazetidin-3-yl)-4-(2-(4-chloro-5-cyclopropyl-2-hydroxyphenylamino)acetyl)piperazine-2-carboxamide]", "Binding %": "++ (++indicates binding activity greater than 20%)"}
